Values joined by “and” are separate entries in the source; they are usually repeats but may differ in a detail not shown here. Equal values may be shown once. Read-outs that look alike come from different tables or passages of the source. Values belong to the molecule of their own block, whether it stands above or below them.
Experiments:
[1] = tested on: MDA-MB-435 tumor-bearing mice; assay: biodistribution of ^3H-PTX and ^3H-RGD2−PTX in MDA-MB-435 tumor-bearing mice; type: in vivo, mouse
Description: All animal experiments were performed in compliance with the guidelines for the care and use of research animals established by the Stanford University's Animal Studies Committee. Female athymic nude mice (nu/nu) were obtained from Harlan (Indianapolis, Ind.) at 6-8 weeks of age and were kept under sterile conditions. The MDA-MB-435 cells were harvested and suspended in sterile PBS at a concentration of 5×10^7 cells/mL. Viable cells (5×10^6) in PBS (100 μL) were injected orthotopically in the right mammary fat pad. […] Tumor growth was followed by caliper measurements of perpendicular measures of the tumor. The tumor volume was estimated by the formula: tumor volume=a×(b^2)/2, where a and b are the tumor length and width respectively in mm.
The animals were euthanized at 4, 24 and 48 h post injection and major organs and tissues were collected correspondingly. Approximately 100 mg of the tissue was added to glass scintillation vials containing 1 mL of tissue solubilizer SoluEne®-350 (Perkin-Elmer, Waltham, Mass.). These samples were digested at 55° C. for overnight followed by bleaching to obtain the decolorized samples. Chemiluminescence was reduced by the addition of glacial acetic acid. Hionic-Fluor liquid scintillation cocktail (Perkin-Elmer) was added to all samples, which were then counted with a Tri-Carb 2800TR liquid scintillation Analyzer (Perkin-Elmer).

integrin αvβ3 = molecular target: T1, integrin αvβ3 (Homo sapiens, UniProt P05106+P06756); assay: competitive cell binding assay using ^125I-echistatin on U87MG cells; conditions: n=3, read-out: IC50 (inhibition of ^125I-echistatin binding to U87MG cells)
T1 construct: evaluated using U87MG cells (integrin αvβ3-positive); endogenous in cells; host or cells: U87MG human glioblastoma cells (ATCC)
Description: Experiments were performed on U87MG human glioblastoma cells with triplicate samples as previously reported.
In vitro integrin αvβ3-binding affinities and specificities of RGD4, PRGD4 and FPRGD4 were assessed via displacement cell binding assays using ^125I-echistatin as the integrin αvβ3-specific radioligand. Experiments were performed on U87MG human glioblastoma cells by the method previously described (J Nucl Med. 2005;46:1707-1718 J Nucl Med. 2006;47:1172-1180, which is incorporated herein by reference for the corresponding discussion). […] Experiments were performed with triplicate samples.
Experiments were performed with triplicate samples.
In vitro integrin-binding affinity and specificity of RGD multimers and DOTA-RGD multimers were assessed via competitive cell binding assays using ^125I-echistatin as the integrin αvβ3-specific radioligand (J Nucl Med. 2005;46:1707-1718, which is incorporated herein by reference for the corresponding discussion). […] Experiments were performed with triplicate samples.

in vivo = conditions: mouse, iv, 3.7 MBq, total radioactivity, U87MG tumor uptake
Description: PET scans and image analysis were performed using a microPET R4 rodent model scanner (Siemens Medical Solutions) as previously reported (J Nucl Med 2006;47:113-121 and J Nucl Med 2005;46:1707-1718, each of which is incorporated herein by reference for the corresponding discussion). Each mouse was tail-vein injected with about 3.7 MBq (100 μCi) of ^18F-FPRGD2 under isoflurane anesthesia. The 30-min dynamic scan (1×30 s, 4×1 min, 1×1.5 min, 4×2 min, 1×2.5 min, 4×3 min, total of 15 frames) was started 1 min after injection. Five min static PET images were also acquired at 1 h and 2 h post-injection (p.i.). The images were reconstructed by a 2-dimensional ordered-subsets expectation maximum (OSEM) algorithm and no correction was applied for attenuation or scatter.
PET scans and image analysis were performed using a microPET R4 rodent model scanner (Siemens Medical Solutions) as previously reported. For U87MG tumor model, mice (n=3) were tail-vein injected with about 3.7 MBq (100 μCi) of ^18F-FPRGD4 under isoflurane anesthesia and then subjected to a 30-min dynamic scan (1×30 s, 4×1 min, 1×1.5 min, 4×2 min, 1×2.5 min, 4×3 min, total of 15 frames) starting from 1 min p.i. Five min static PET images were also acquired at 1, 2, and 3 h p.i. The images were reconstructed by 2-dimensional ordered-subsets expectation maximum (OSEM) algorithm. No attenuation or scatter correction was applied. […] The 5-min static PET scans was then acquired at 30 min and 1 h p.i. Multiple time point static scans were also obtained for orthotopic MDA-MB-435, c-neu oncomouse, and subcutaneous DU145 tumor models after tail-vein injected with 3.7 MBq of ^18F-FPRGD4.
For each microPET scan, regions of interest (ROIs) were drawn over the tumor, normal tissue, and major organs by using vendor software (ASI Pro 5.2.4.0) on decay-corrected whole-body coronal images. The maximum radioactivity concentration (accumulation) within a tumor or an organ was obtained from mean pixel values within the multiple ROI volume, which were converted to counts/mL/min by using a conversion factor. Assuming a tissue density of 1 g/mL, the ROIs were converted to counts/g/min and then divided by the administered activity to obtain an imaging ROI-derived % ID/g. […]
PET scans and image analysis were performed using a microPET R4 rodent model scanner (Siemens Medical Solutions) as previously reported (J Nucl Med. 2005;46:1707-1718 and J Nucl Med. 2006;47:113-121, each of which is incorporated herein by reference for the corresponding discussion). About 9.3 MBq of ^64Cu-DOTA-RGD multimer was intravenously injected into each mouse under isoflurane anesthesia. Five minute static scans were acquired at 30 min, 1 h, 2 h, 6 h, and 20 h p.i. The images were reconstructed by a 2-dimensional ordered-subsets expectation maximum (OSEM) algorithm and no correction was applied for attenuation and scatter. For each microPET scan, regions of interest (ROIs) were drawn over the tumor, normal tissue, and major organs on decay-corrected whole-body coronal images. The radioactivity concentration (accumulation) within a tumor was obtained from the maximum value within the multiple ROIs and then converted to % ID/g.
PET scans and image analysis were performed using a microPET R4 rodent model scanner (Siemens Medical Solutions) as previously reported (J Nucl Med. 2006;47:113-21 and J Nucl Med. 2005;46:1707-18, which is incorporated herein by reference for the corresponding discussion). […] The 60-min dynamic scan (5×1 min, 10×3 min, 5×5 min, total of 20 frames) was started 1 min after injection. A 2 h time point static scan was also acquired after the 60 min dynamic scan. Five min static PET images were also acquired separately at 30 min, 1 h and 2 h time points post-injection (p.i.) for another set of tumor-bearing mice (n=3/tracer). The images were reconstructed by a 2-dimensional ordered-subsets expectation maximum (OSEM) algorithm and no correction was necessary for attenuation or scatter correction. […]

SMILES: CC(=O)O[C@H]1C(=O)[C@@]2(C)[C@H]([C@H](OC(=O)c3ccccc3)[C@]3(O)C[C@H](OC(=O)[C@H](O)[C@@H](NC(=O)c4ccccc4)c4ccccc4)C(C)=C1C3(C)C)[C@]1(OC(C)=O)CO[C@@H]1C[C@@H]2O [^3H-PTX, reference compound]
tissue concentration, Blood ([1]; 4 h): 67.1 ± 9.8 ng/g | tissue concentration, Intestine ([1]; 4 h): 274.1 ± 110.1 ng/g | tissue concentration, Kidney ([1]; 4 h): 339.6 ± 67.6 ng/g | tissue concentration, Liver ([1]; 4 h): 2389.3 ± 408.8 ng/g | tissue concentration, Lung ([1]; 4 h): 329.2 ± 18.2 ng/g | tissue concentration, MDA-MB-435 tumor ([1]; 4 h): 239.0 ± 56.2 ng/g | tissue concentration, Muscle ([1]; 4 h): 257.3 ± 32.2 ng/g | tissue concentration, Skin ([1]; 4 h): 135.1 ± 23.5 ng/g | tissue concentration, Spleen ([1]; 4 h): 365.5 ± 118.5 ng/g | tissue concentration, Stomach ([1]; 4 h): 180.7 ± 15.7 ng/g | tissue concentration, Blood ([1]; 24 h): 42.7 ± 14.7 ng/g | tissue concentration, Intestine ([1]; 24 h): 14.4 ± 2.5 ng/g | tissue concentration, Kidney ([1]; 24 h): 38.0 ± 13.3 ng/g | tissue concentration, Liver ([1]; 24 h): 123.4 ± 12.2 ng/g | tissue concentration, Lung ([1]; 24 h): 35.2 ± 5.4 ng/g | tissue concentration, MDA-MB-435 tumor ([1]; 24 h): 85.6 ± 15.2 ng/g | tissue concentration, Muscle ([1]; 24 h): 41.1 ± 17.2 ng/g | tissue concentration, Skin ([1]; 24 h): 24.6 ± 3.2 ng/g | tissue concentration, Spleen ([1]; 24 h): 51.6 ± 7.6 ng/g | tissue concentration, Stomach ([1]; 24 h): 24.4 ± 4.7 ng/g | decrease of concentration in the tumor ([1]; 24 h compared with 4 h): around 3 fold | drop of concentration in kidneys ([1]; 24 h compared with 4 h): 9 fold | drop of concentration in the liver ([1]; 24 h compared with 4 h): 20 fold | tissue concentration, Blood ([1]; 48 h): 35.0 ± 1.5 ng/g | tissue concentration, Intestine ([1]; 48 h): 12.8 ± 7.0 ng/g | tissue concentration, Kidney ([1]; 48 h): 35.7 ± 2.0 ng/g | tissue concentration, Liver ([1]; 48 h): 132.6 ± 31.9 ng/g | tissue concentration, Lung ([1]; 48 h): 47.9 ± 8.8 ng/g | tissue concentration, MDA-MB-435 tumor ([1]; 48 h): 45.8 ± 1.69 ng/g and 45.8 ± 1.7 ng/g | tissue concentration, Muscle ([1]; 48 h): 35.4 ± 10.7 ng/g | tissue concentration, Skin ([1]; 48 h): 25.4 ± 9.3 ng/g | tissue concentration, Spleen ([1]; 48 h): 36.4 ± 8.4 ng/g | tissue concentration, Stomach ([1]; 48 h): 17.2 ± 4.0 ng/g | decrease of concentration in the tumor ([1]; 48 h compared with 4 h): 5.2 fold

IC50 (integrin αvβ3; Example 2): 37.7 ± 7 nM
SMILES: N=C(N)NCCC[C@@H]1NC(=O)[C@H](CCCCNC(=O)CC[C@H](NC(=O)CC[C@H](NC(=O)COCCOCCOCCNC(=O)c2ccc(F)cc2)C(=O)N[C@@H](CCC(=O)NCCCC[C@@H]2NC(=O)[C@@H](Cc3ccc(O)cc3)NC(=O)[C@H](CC(=O)O)NC(=O)CNC(=O)[C@H](CCCNC(=N)N)NC2=O)C(=O)NCCCC[C@@H]2NC(=O)[C@@H](Cc3ccc(O)cc3)NC(=O)[C@H](CC(=O)O)NC(=O)CNC(=O)[C@H](CCCNC(=N)N)NC2=O)C(=O)NCCCC[C@@H]2NC(=O)[C@@H](Cc3ccc(O)cc3)NC(=O)[C@H](CC(=O)O)NC(=O)CNC(=O)[C@H](CCCNC(=N)N)NC2=O)NC(=O)[C@@H](Cc2ccc(O)cc2)NC(=O)[C@H](CC(=O)O)NC(=O)CNC1=O [FPRGD4, FB-NH-mini-PEG-CO-E{E[c(RGDyK)]2}2]

IC50 (integrin αvβ3; Example 4): 11 nM
SMILES: N=C(N)NCCC[C@@H]1NC(=O)[C@H](CCCCNC(=O)CC[C@H](NC(=O)CC[C@H](NC(=O)CC[C@H](NC(=O)CN2CCN(CC(=O)O)CCN(CC(=O)O)CCN(CC(=O)O)CC2)C(=O)N[C@@H](CCC(=O)N[C@@H](CCC(=O)NCCCC[C@@H]2NC(=O)[C@@H](Cc3ccc(O)cc3)NC(=O)[C@H](CC(=O)O)NC(=O)CNC(=O)[C@H](CCCNC(=N)N)NC2=O)C(=O)NCCCC[C@@H]2NC(=O)[C@@H](Cc3ccc(O)cc3)NC(=O)[C@H](CC(=O)O)NC(=O)CNC(=O)[C@H](CCCNC(=N)N)NC2=O)C(=O)N[C@@H](CCC(=O)NCCCC[C@@H]2NC(=O)[C@@H](Cc3ccc(O)cc3)NC(=O)[C@H](CC(=O)O)NC(=O)CNC(=O)[C@H](CCCNC(=N)N)NC2=O)C(=O)NCCCC[C@@H]2NC(=O)[C@@H](Cc3ccc(O)cc3)NC(=O)[C@H](CC(=O)O)NC(=O)CNC(=O)[C@H](CCCNC(=N)N)NC2=O)C(=O)N[C@@H](CCC(=O)NCCCC[C@@H]2NC(=O)[C@@H](Cc3ccc(O)cc3)NC(=O)[C@H](CC(=O)O)NC(=O)CNC(=O)[C@H](CCCNC(=N)N)NC2=O)C(=O)NCCCC[C@@H]2NC(=O)[C@@H](Cc3ccc(O)cc3)NC(=O)[C@H](CC(=O)O)NC(=O)CNC(=O)[C@H](CCCNC(=N)N)NC2=O)C(=O)NCCCC[C@@H]2NC(=O)[C@@H](Cc3ccc(O)cc3)NC(=O)[C@H](CC(=O)O)NC(=O)CNC(=O)[C@H](CCCNC(=N)N)NC2=O)NC(=O)[C@@H](Cc2ccc(O)cc2)NC(=O)[C@H](CC(=O)O)NC(=O)CNC1=O [DOTA-RGD octamer]

tissue uptake at 0.5 h (in vivo; athymic nude): 3.4 ± 0.1 %ID/g | tissue uptake at 1 h (in vivo; athymic nude): 2.8 ± 0.1 %ID/g | tissue uptake at 2 h (in vivo; athymic nude): 2 ± 0.2 %ID/g | tissue uptake at 5 min (in vivo; nude): 4.9 %ID/g | tissue uptake at 0.25 h (in vivo; nude): 4.08 %ID/g | tissue uptake at 0.5 h (in vivo; nude): 3.48 %ID/g | tissue uptake at 1 h (in vivo; nude): 2.86 %ID/g | tissue uptake at 2 h (in vivo; nude): 2.13 %ID/g
SMILES: N=C(N)NCCC[C@@H]1NC(=O)[C@H](CCCCNC(=O)CC[C@H](NC(=O)CC[C@H](NC(=S)Nc2ccc(C[C@H]3CN(CC(=O)O)CCN(CC(=O)O)CCN3CC(=O)O)cc2)C(=O)N[C@@H](CCC(=O)NCCCC[C@@H]2NC(=O)[C@@H](Cc3ccc(O)cc3)NC(=O)[C@H](CC(=O)O)NC(=O)CNC(=O)[C@H](CCCNC(=N)N)NC2=O)C(=O)NCCCC[C@@H]2NC(=O)[C@@H](Cc3ccc(O)cc3)NC(=O)[C@H](CC(=O)O)NC(=O)CNC(=O)[C@H](CCCNC(=N)N)NC2=O)C(=O)NCCCC[C@@H]2NC(=O)[C@@H](Cc3ccc(O)cc3)NC(=O)[C@H](CC(=O)O)NC(=O)CNC(=O)[C@H](CCCNC(=N)N)NC2=O)NC(=O)[C@@H](Cc2ccc(O)cc2)NC(=O)[C@H](CC(=O)O)NC(=O)CNC1=O [^68Ga-NOTA-RGD4, metal not drawn]

Source: patent US20080267882A1, “Imaging compounds, methods of making imaging compounds, methods of imaging, therapeutic compounds, methods of making therapeutic compounds, and methods of therapy” (Stanford University, priority 2007, published 2008)
